Literature values in patent US20060073539A1 (priority 2001, published 2006).

Test system: human hepatocyte and neuroblastoma cells
Conditions: cited from earlier work

SMILES | effect on cell metabolism
CCOP(=O)(OCC)Oc1ccc([N+](=O)[O-])cc1 [paraoxon] | opposite effects
CCOP(=S)(OCC)Oc1ccc([N+](=O)[O-])cc1 [parathion] | opposite effects
